Test results taken from the NIST ThermoML archive (doi:10.1016/j.jct.2012.05.013).
Numbers after ± are expanded uncertainties.

Experiments:
[1] = Molar enthalpy of transition or fusion; conditions: Crystal; DSC
[2] = for vapor or sublimation pressure: Liquid, Closed cell (Static) method
[3] = molar enthalpy of vaporization or sublimation; conditions: 298.15 K; Crystal; Static calorimetry

CN(C)c1cccc2cccc(N(C)C)c12 [1,8-bis(dimethylamino)naphthalene]
Conditions	Molar enthalpy of transition or fusion [kcal/mol]	molar enthalpy [kcal/mol]
[1]	4.18 ± 0.311	–
[3]	–	22.4 ± 0.55

[2]
Conditions	vapor or sublimation pressure [kPa]
322.96 K	0.00189 ± 0.00013
327.93 K	0.00285 ± 0.00016
332.9 K	0.00428 ± 0.0002
337.88 K	0.00638 ± 0.00028
342.85 K	0.00921 ± 0.00038
347.82 K	0.01325 ± 0.00052
352.78 K	0.01867 ± 0.0006
357.73 K	0.02622 ± 0.00072
362.69 K	0.03643 ± 0.00088
367.65 K	0.0494 ± 0.0011
372.6 K	0.06696 ± 0.0014
377.55 K	0.08952 ± 0.0017
382.51 K	0.1184 ± 0.0022

Conditions	Triple point temperature [K]
[2], Crystal, DTA	322.2 ± 1.8
